A short description of one data set: physchem. As for the experimental part:
The solution loss rate is evaluated through solubility in water.

A short description of data set [1]: Liquid-liquid extraction from aqueous lithium-containing solution, ICP detection: lithium.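 Also: component concentrations in the aqueous phase were measured by inductively coupled plasma optical emission spectrometry after shaking and phase separation.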
Data set [2] in a line: Liquid-liquid extraction from aqueous lithium-containing solution, ICP detection: sodium.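 Also: sodium measured by inductively coupled plasma optical emission spectrometry in the diluted aqueous phase left after shaking with the organic phase and phase separation.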
A short description of data set [3]: pH of aqueous phase after extraction or stripping.
Data set [4] is described as follows: Liquid-liquid extraction from aqueous lithium-containing solution, ICP detection: potassium.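 Also: analysis by ICP optical emission spectrometry.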 To be noted: organic phase and phase ratio per example.
For data set [5] the following is noted: room temperature; public literature (www.chemicalbook.com; J. Chem. Eng. Data 2008, 53, 8, 1996-1998); cited from earlier work.
For data set [6] the following is noted: pH 11.48.
For data set [7] the following is noted: pH 11.48. The source holds these as a separate data set.
Setting [8] is: feed B7 (cLi 0.833, cNa 55.60, cK 5.37 g/L, pH 12.05), 26°C, organic phase and phase ratio per example.
[9] abbreviates: feed B7 (cLi 0.833, cNa 55.60, cK 5.37 g/L, pH 12.05), 26°C.
Where [10] appears, read: feed B3 (cLi 0.937, cNa 119.10, cK 43.03 g/L, pH 9.60), organic phase and phase ratio per example.
Where [11] appears, read: feed B3 (cLi 0.937, cNa 119.10, cK 43.03 g/L, pH 9.60).
[12] abbreviates: feed B1 (cLi 0.807, cNa 56.12 g/L, pH 11.48), organic phase and phase ratio per example.

In brackets after ≈: the same amount, converted by molar mass. Read-outs that look alike come from different tables or passages of the source.

As for `CCCCCOc1ccc(C(=O)c2ccccc2)c(O)c1` [4-pentyloxy-2-hydroxydibenzophenone], the “solubility in pure water” value in the data set “physchem” amounted to 50 µg/mL (≈ 176 µM).
Regarding “2-hydroxy-5-methoxyacetophenone [Example 30]”, in data set [1] (setting [8]), the “extraction rate for lithium ions” value is 60.26% and the “separation factor of Li/Na” value was determined as 12.4. Also, in data set [2] (setting [8]), the “extraction rate for sodium ions” value turned out to be 10.86%. For the same molecule, in data set [3] (feed B7 (pH 12.05)), the “pH, remaining aqueous phase R1” value is 10.30. Further, in data set [4] (setting [9]), the “extraction rate for potassium ions” value turned out to be 7.08%.
`O=C(c1ccccc1)c1cc([N+](=O)[O-])c(OCc2ccccc2)cc1O` [Example 12, 4-benzyloxy-5-nitro-2-hydroxydibenzophenone]: in data set [1] (setting [10]), the “extraction rate for lithium ions” value was determined as 85.7%, the “separation factor of Li/K” value is 66.0 and the “separation factor of Li/Na” value was determined as 53.4. Moreover, in data set [2] (setting [10]), the “extraction rate for sodium ions” value is 10.1%. Besides, in data set [3] (feed B3 (pH 9.60)), the “pH, remaining aqueous phase R1” value is listed as 8.66. Further, the “extraction rate for potassium ions” value in data set [4] (setting [11]) is reported as 8.3%.
Turning to `O=C(c1ccccc1)c1ccc(O)cc1O` [2,4-dihydroxydibenzophenone], the “solubility in pure water” value in data set [5] is 700 µg/mL (≈ 3270 µM).
As usually defined, the solubility is how much of the substance goes into solution per volume. A high value points to a readily soluble substance. The molecule `COc1ccc(C(=O)c2ccccc2)c(O)c1` [2-hydroxy-4-methoxydibenzophenone] displayed a solubility in the data set “physchem” (water) of under 1000 µg/mL.
With 2-hydroxydibenzophenone [Example 1], in data set [1] (pH 11.48), the “extraction rate for lithium ions” value was 68.2% and the “separation factor of Li/Na” value is given as 19.2. The “extraction rate for sodium ions” value in data set [2] (pH 11.48) is given as 10%. Moreover, the “pH, remaining aqueous phase R1” value in data set [3] (feed B1 (pH 11.48)) came to 10.12. Moreover, in data set [6], the “cNa, remaining aqueous phase R1” value amounted to 50.50 g/L. In data set [7], the “cLi, remaining aqueous phase R1” value was determined as 0.257 g/L.
Take `CCCCCCCCOc1cc(O)c(C(=O)c2ccccc2)cc1[N+](=O)[O-]` [Example 13, 4-octyloxy-5-nitro-2-hydroxydibenzophenone]: in data set [1] (setting [10]), the “extraction rate for lithium ions” value was 64.7%, the “separation factor of Li/K” value is 39.9 and the “separation factor of Li/Na” value is 33.2. Moreover, the “extraction rate for sodium ions” value in data set [2] (setting [10]) is given as 5.2%. In addition, the “extraction rate for potassium ions” value in data set [4] (setting [11]) is reported as 4.4%.
In the case of “2-hydroxy-2-phenylacetophenone [Example 41]”, in data set [1] (setting [12]), the “extraction rate for lithium ions” value was 69.3% and the “separation factor of Li/Na” value is recorded as 16.8. For the same molecule, in data set [2] (setting [12]), the “extraction rate for sodium ions” value is reported as 11.8%. Further, the “pH, remaining aqueous phase R1” value in data set [3] (feed B1 (pH 11.48)) is 10.1.
With `CCCCCCCCOc1ccc(C(=O)c2ccccc2)c(O)c1[N+](=O)[O-]` [4-octyloxy-3-nitro-2-hydroxydibenzophenone], in the data set “physchem”, the “solubility in pure water” value came out at 10 µg/mL (≈ 26.9 µM).
Turning to `COc1ccc(C(C)=O)c(O)c1OC` [Example 33, 2-hydroxy-3,4-dimethoxyacetophenone], in data set [1] (setting [8]), the “extraction rate for lithium ions” value is 50.06% and the “separation factor of Li/Na” value was 7.4. For the same molecule, the “extraction rate for sodium ions” value in data set [2] (setting [8]) is 11.94%. Besides, in data set [4] (setting [9]), the “cK, remaining aqueous phase R1” value is on record as 4.95 g/L and the “extraction rate for potassium ions” value is 7.8%.
In the case of `O=C(CC(=O)C(F)(F)F)c1ccccc1` [benzoyltrifluoroacetone], in data set [5], the “solubility in pure water” value is 240 µg/mL (≈ 1110 µM).
`CCCCCCCCCCOc1ccc(C(=O)c2ccccc2)c(O)c1` [Example 11, 4-decyloxy-2-hydroxydibenzophenone]: in data set [1] (setting [10]), the “extraction rate for lithium ions” value is reported as 3.1% and the “separation factor of Li/Na” value came out at 3.5. Also, the “extraction rate for sodium ions” value in data set [2] (setting [10]) worked out at 0.9%. The “cK, remaining aqueous phase R1” value in data set [4] (setting [11]) is 42.65 g/L.
With `CC1=NN(c2ccccc2)C(=O)C1C(=O)c1ccccc1` (stereo not drawn) [Comparative Example 7, 1-phenyl-3-methyl-4-benzoyl-5-pyrazolone, reference compound], in data set [1] (setting [10]), the “extraction rate for lithium ions” value was found to be 1.28% and the “separation factor of Li/Na” value amounted to 1.17. Besides, in data set [2] (setting [10]), the “extraction rate for sodium ions” value is listed as 1.09%. Further, the “cK, remaining aqueous phase R1” value in data set [4] (setting [11]) is 42.96 g/L.
The like results for `Cc1ccc(C(=O)CC(=O)C(F)(F)F)cc1` [Comparative Example 6, 4,4,4-trifluoro-1-(4-tolyl)-1,3-butanedione, reference compound] were, in that order, 81.11%, 125.8, 3.30% and 42.11 g/L.
For the molecule `CCCCCCCCOc1cc(O)c(C(=O)c2ccccc2)cc1[N+](=O)[O-]` [2-hydroxy-4-octyloxy-5-nitrodibenzophenone], the “solubility in pure water” value in the data set “physchem” was determined as 10 µg/mL (≈ 26.9 µM).
As to `CC(=O)c1cc(Cl)cc([N+](=O)[O-])c1O` [Example 37, 5-chloro-2-hydroxy-3-nitrocetophenone], in data set [1] (setting [8]), the “extraction rate for lithium ions” value amounted to 92.1% and the “separation factor of Li/Na” value worked out at 120. Further, the “extraction rate for sodium ions” value in data set [2] (setting [8]) was 8.7%. In addition, in data set [4] (setting [9]), the “cK, remaining aqueous phase R1” value was 4.93 g/L and the “extraction rate for potassium ions” value was found to be 9.2%.

The values are drawn from patent EP4549424A1, “NEW LITHIUM EXTRACTING AGENT AND LIQUID ORGANIC MIXTURE THEREOF, AND METHOD FOR EXTRACTING LITHIUM BY MEANS OF EXTRACTION” (Beijing Salt Lake Technology Development Company Limited, priority 2022, dated 2024).
